Assay results taken from article PMC11915372, “Identification of a Series Containing a Pentafluorophenyl Moiety That Targets Pks13 to Inhibit Growth of Mycobacterium tuberculosis” (ACS Infectious Diseases, 2025).
Where two headings read alike, the source gives them in different places.

Columns and labels:
M. tuberculosis (H37Rv) = assay: microbe, parasite or virus in culture; assay type: cell-based, Mycobacterium tuberculosis
physchem = assay type: physicochemical
[1] = assay type: in vitro ADME, mouse; conditions: for Mouse micro Cl: intrinsic clearance (Cli), CD1 mouse liver microsomes, Tables 1-4; for Microsomal Cli: supplement data table
[2] = assay type: in vitro ADME, mouse; conditions: for Mouse Heps Cl: intrinsic clearance (Cli), mouse hepatocytes, Tables 1-4; for Hepatocyte Cli: supplement data table
[3] = system: iniBAC promoter (PiniB-LUX strain); assay type: cell-based, Mycobacterium tuberculosis
Pks13 hypomorph strain = assay type: cell-based, Mycobacterium tuberculosis
[4] = system: MmpL3, DprE1, InhA, FadD32, Kas A hypomorph strains; assay type: cell-based, Mycobacterium tuberculosis
[5] = assay type: in vitro ADME, human
Procedure: Non-Chemistry supplementary methods
Test compound (10 µM) was incubated with 0.5 mg/mL Human Liver Microsomes (Mixed Gender, Life Technologies) in 50 mM potassium phosphate buffer, pH7.4 in the presence of either NADPH (8mg/mL), glutathione or NADPH plus glutathione. Reactions are started by addition of 5 µL of 1 mM test compound (final concentration 10 µM, 1% solvent). Immediately, an aliquot (100 µL) of the incubation mixture was removed and mixed with acetonitrile (200 µL) to stop the reaction. A further 100 uL aliquot is removed at 90 minutes. After addition of 100 µL of water, the samples were centrifuged to sediment precipitated protein and the plates then sealed prior to analysis using a Xevo QTof Quadrupole Time-of-Flight Mass Spectrometer (Waters corporation, USA). Detection of metabolites is performed by analysis with MetabolynxXS and by manual data searching. Elemental composition of the parent ion and MS/MS analysis is used to determine the nature of the GSH adduct.
Incubations with Clozapine were performed to provide a positive control.
Met ID in human liver microsomes […]
Analysis was performed on a Waters Acquity H-Class UHPLC system equipped with a photodiode array detector and Waters Xevo Q-ToF high resolution mass spectrometer. […] After the UV detector the mobile phase flow was analysed using the QToF mass spectrometer. […]

HepG2 cells = assay: HepG2 cytotoxicity
Description: Assays to establish HepG2 cytotoxicity, in vitro microsomal/hepatocyte metabolic stability, aqueous kinetic solubility, and in vivo pharmacokinetic profiles were all performed as previously described.[15],[35]−[37]

[6] = pH 7.4
[7] = kinetic solubility in water, read-out: Kin. Sol

CN(C)c1ncnc2sc(-c3c(F)c(F)c(F)c(F)c3F)nc12.Cl [Compound 1, CN(C)c1ncnc2sc(nc12)-c1c(c(c(c(c1F)F)F)F)F]
MIC (M. tuberculosis (H37Rv); Mycobacterium tuberculosis, H37RV, read-out: H37Rv MIC A): 0.12 µM | MIC (M. tuberculosis (H37Rv); Mycobacterium tuberculosis, H37RV, read-out: H37Rv MIC B): 0.61 µM | MIC (M. tuberculosis (H37Rv); Mycobacterium tuberculosis, H37RV, read-out: Wk2_7H9/DPPC/ casitone/ Tyloxapol MIC): 0.124 µM | MIC (M. tuberculosis (H37Rv); Mycobacterium tuberculosis, H37RV, read-out: Wk2_ 7H9/DPPC/ cholesterol/BSA/ Tyloxapol MIC): 0.6 µM | MIC (M. tuberculosis (H37Rv); Mycobacterium tuberculosis, H37RV, read-out: Wk2_7H9/glucose/ BSA/Tyloxapol MIC): 0.5 µM | MIC (M. tuberculosis (H37Rv); Mycobacterium tuberculosis, H37RV, read-out: Wk2_7H9/glucose/ casitone/ Tyloxapol MIC): 0.1 µM | solubility kinetic (physchem; [7]): 1.9 µM | solubility kinetic (physchem; pH 7.4, aqueous buffer, kinetic from dmso stock, pH7.4, read-out: Kinetic Solubility pH7.4): 1.9 µM | Mouse micro Cl [1]: >50 mLmin/g | Microsomal Cli [1]: >50 mL/min/g | Mouse Heps Cl [2]: >50 mLmin/g | Hepatocyte Cli [2]: >50 mL/min/g | PiniB-LUX luminescent signal [3]: strong luminescent signal | shift in IC50 between the ± atc conditions (Pks13 hypomorph strain): ~10 fold | change in potency on partial depletion of InhA, FadD32 or Kas A [4]: did not increase in potency | inhibition of MmpL3 or DprE1 suggested by hypomorph strains [4]: not inhibiting MmpL3 or DprE1 | formation of the GSH adduct [5]: clear evidence of a significant peak corresponding to the formation of the GSH adduct | IC50 (HepG2 cells; Homo sapiens, HepG2, read-out: HepG2 inhibitory concentration (IC50)): > 100 µM

COC(=O)c1nn(c(c1NC(=O)c1c(c(c(c(c1F)F)F)F)F)C)C [Compound 20]
MIC (M. tuberculosis (H37Rv); read-out: H37Rv MIC A): >50 µM | MIC (M. tuberculosis (H37Rv); read-out: H37Rv MIC B): >50 µM | MIC (M. tuberculosis (H37Rv); read-out: Wk2_7H9/DPPC/ casitone/ Tyloxapol MIC): >50 µM | MIC (M. tuberculosis (H37Rv); read-out: Wk2_ 7H9/DPPC/ cholesterol/BSA/ Tyloxapol MIC): >50 µM | MIC (M. tuberculosis (H37Rv); read-out: Wk2_7H9/glucose/ BSA/Tyloxapol MIC): >50 µM | MIC (M. tuberculosis (H37Rv); read-out: Wk2_7H9/glucose/ casitone/ Tyloxapol MIC): >50 µM | solubility kinetic (physchem; [7]): 229 µM | solubility kinetic (physchem; pH 7.4, read-out: Kinetic Solubility pH7.4): 229 µM | Mouse micro Cl [1]: 1.4 mLmin/g | Microsomal Cli [1]: 1.4 mL/min/g | Mouse Heps Cl [2]: 15.2 mLmin/g | Hepatocyte Cli [2]: 15 mL/min/g | CHI LogD [6]: 2.0 | IC50 (HepG2 cells; read-out: HepG2 inhibitory concentration (IC50), growth of HepG2 cells): > 100 µM
